In US8058285B2, “Substituted pyrido [3′, 2′: 4, 5] thieno [3, 2-D] pyrimidines and pyrido [3′, 2′: 4, 5] furo [3, 2-D] pyrimidines used as inhibitors of the PDE-4 and/or the release of TNF-ALPHA” (The Medicines Company (Leipzig) GmbH, priority 2004, dated 2011):
Values joined by “and” are separate entries in the source; they are usually repeats but may differ in a detail not shown here. Equal entries are not always repeated. Structures can show the parent of a compound that is named as a salt.

What follows are compounds tested against T1, PDE-4A (Homo sapiens, UniProt P27815) (assay: PDE-4A inhibitory assay (SPA)).
T1 construct: PDE-4A catalytic domain comprising amino acids 342-704; made in house; host or cells: Escherichia coli
Type: biochemical
Text: Human recombinant PDE-4A catalytic domain comprising amino acids 342-704 was cloned into Escherichia coli and expressed, as described by W. Richter et al., Protein Expression and Purification (2000) 19: 375-383. The other posphodiesterases were either obtained from cell lines of human origin (TPH1 monocytes line for PDE-1, MCF7 for PDE-5) or expressed recombinantly in sf9 insect cells (for PDE-3A, PDE-3B, PDE-7A and PDE-4D) in accordance with an adapted method by Luckow, V. A. et al., in: Recombinant DNA Technology & Applications., (1991) eds. Prokop, Bajpai, R. K. & Ho, C. S., pp 97-152.
The phosphodiesterase activity was determined by the SPA assay as described by the manufacturer Amersham Biosciences and by Horton J. K and Baxendale P. M., Methods Mol. Biol. (1995) 41: 91-105.
The reaction mixtures contained 100 mM Tris-HCl (pH 7.5), 5 mM MgCl2, 3.8 mM 2-mercaptoethanol, and 1 μM cAMP or cGMP as a substrate, the inhibitors at different concentrations and also further components required for the detection of the individual isoenzymes (see below). The reaction was started by adding the enzyme. The operating volume is 100 μl in the wells of a white 96-Well microtiter plate. The test substances were produced as stock solutions in DMSO. The DMSO concentration in the reaction batch was 1% v/v. The PDE activity is not impaired with this DMSO concentration. Having started the reaction by the addition of enzyme, the samples were incubated at 22° C. for 20 min. The reaction was stopped by the addition of SPA bead suspension which contains the zinc sulfate concentration provided according to the manufacturer. Then, the beads are allowed to sediment for 30 min and the plates are analyzed on the luminescence microtiter plate reader Fluostar Optima (BMG Labtechologies).
[^3H]-cAMP was used as a substrate for determining the activity of PDE-2, -3, -4 and -7 and [^3H]-cGMP for determining the activity of PDE-5. The non-specific enzyme activities were determined in the presence of 100 μM rolipram (for PDE-4) and in the presence of 100 μM IBMX (for PDE-3 and -5) and subtracted from the test values. The incubation samples of the PDE-3 assay contain 10 μM rolipram to inhibit possible contaminations by PDE-4. The PDE-2 activity is tested using a SPA assay by Amersham Biosciences in the presence of the PDE-2 activator 5 μM cGMP. […] The selectivity as to PDEs 2, 3 and 5 has a factor of 100 to 10 000.

T1 sequence (P27815 342-704): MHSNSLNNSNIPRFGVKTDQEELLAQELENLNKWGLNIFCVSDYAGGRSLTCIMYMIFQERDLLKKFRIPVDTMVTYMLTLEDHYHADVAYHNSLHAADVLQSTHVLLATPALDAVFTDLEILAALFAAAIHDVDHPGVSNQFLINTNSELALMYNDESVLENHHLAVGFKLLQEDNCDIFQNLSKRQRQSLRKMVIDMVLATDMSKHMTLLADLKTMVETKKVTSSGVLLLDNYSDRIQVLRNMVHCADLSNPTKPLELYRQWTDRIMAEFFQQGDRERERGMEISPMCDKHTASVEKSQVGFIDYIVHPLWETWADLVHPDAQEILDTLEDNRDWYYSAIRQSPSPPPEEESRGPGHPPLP

| Structure (SMILES) | IC50 |
| --- | --- |
| CCOc1nc(N2CCNCC2)nc2c1sc1nc(-c3ccc(Br)cc3)nc(C)c12 [7-(4-Bromo-phenyl)-4-ethoxy-9-methyl-2-piperazin-1-yl-thieno[2,3-d:4,5-d′]dipyrimidine] | 2 to 50 nM |
| CCOc1nc(N2CCNCC2)nc2c1sc1nc(-c3cc(OC)c(OC)c(OC)c3)cc(C(F)(F)F)c12 [4-Ethoxy-2-piperazin-1-yl-9-trifluoromethyl-7-(3,4,5-trimethoxy-phenyl)-pyrido[3′,2′:4,5]thieno[3,2-d]pyrimidine] | 2 to 50 nM |
| CCOc1nc(N2CCNCC2)nc2c1sc1nc(N3CCOCC3)c3c(c12)CCCCC3 [9-Ethoxy-6-morpholino-11-(piperazin-1-yl)-2,3,4,5-tetrahydro-1H-cyclohepta[4′,5′]pyrido[3′,2′:4,5]thieno[3,2-d]pyrimidine] | 2 to 50 nM |
| CCOc1nc(N2CCNCC2)nc2c1sc1nc(-c3ccc4c(c3)OCO4)cc(CC)c12 [4-Ethoxy-9-ethyl-7-(3,4-methylenedioxyphenyl)-2-piperazin-1-yl-pyrido[3′,2′:4,5]thieno-[3,2-d]pyrimidine] | < 2 nM |
| CCOc1nc(N2CCNCC2)nc2c1sc1nc(-c3ccc(-n4cccn4)cc3)cc(CC)c12 [4-Ethoxy-7-(4-(1H-pyrazol-1-yl)-phenyl)-9-ethyl-2-piperazin-1-yl-pyrido[3′,2′:4,5]thieno[3,2-d]pyrimidine] | < 2 nM |
| CCOc1nc(N2CCNCC2)nc2c1sc1nc(-c3ccc(-c4ccc(N)cc4)cc3)nc(C)c12 [7-(4′-Aminobiphen-4-yl)-4-ethoxy-9-methyl-2-piperazin-1-yl-thieno[2,3-d:4,5-d′]dipyrimidine] | < 2 nM |
| CCOc1nc(N2CCNCC2)nc2c1sc1nc(-c3ccc(OC)cc3)nc(C)c12 [4-Ethoxy-7-(4-methoxy-phenyl)-9-methyl-2-piperazin-1-yl-thieno[2,3-d:4,5-d′]dipyrimidine] | 2 to 50 nM |
| CCOc1nc(N2CCNCC2)nc2c1sc1nc(N3CCCCC3)c3c(c12)CCCC3 [8-Ethoxy-5-piperidino-10-piperazin-1-yl-pyrimido[4′,5′:4,5]thieno[2,3-c]-1,2,3,4-tetrahydro-isoquinoline-hydrochloride] | 2 to 50 nM |
| CCOc1nc(N2CCNCC2)nc2c1sc1nc(-c3cccc([N+](=O)[O-])c3)cc(C(F)(F)F)c12 [4-Ethoxy-7-(3-nitro-phenyl)-2-piperazin-1-yl-9-trifluoromethyl-pyrido[3′,2′:4,5]thieno[3,2-d]pyrimidine] | < 2 nM |
| CCOc1nc(N2CCNCC2)nc2c1sc1nc(N3CCOCC3)c3c(c12)CCC3 [7-Ethoxy-2,3-dihydro-4-morpholino-9-piperazin-1yl-1H-cyclopenta[4′,5′]pyrido[3′,2′:4,5]thieno[3,2-d]pyrimidine] | 2 to 50 nM |
| CCOc1nc(N2CCNCC2)nc2c1sc1nc(-c3ccc4c(c3)OCO4)cc(C(F)(F)F)c12 [4-Ethoxy-7-(3,4-methylenedioxyphenyl)-2-piperazin-1-yl-9-trifluoromethyl-pyrido[3′,2′:4,5]thieno-[3,2-d]pyrimidine] | < 2 nM |
| CCOc1nc(N2CCNCC2)nc2c1sc1nc(N3CCSCC3)cc(C)c12 [4-Ethoxy-9-methyl-7-thiomorpholino-2-(piperazin-1-yl)-pyrido[3′,2′:4,5]thieno[3,2-d]pyrimidine-hydrochloride] | 2 to 50 nM |
| CCOc1nc(N2CCNCC2)c2sc3nc(-c4ccccc4)c4c(c3c2n1)CCCC4 [10-Ethoxy-5-phenyl-8-piperazin-1-yl-pyrimido[4′,5′:4,5]thieno[2,3-c]-1,2,3,4-tetrahydro-isoquinoline] | 2 to 50 nM |
| CCOc1nc(N2CCNCC2)nc2c1sc1nc(-c3ccc(-c4ccc(C(=O)O)cc4N)cc3)nc(C)c12 [2′-Amino-4-(4-ethoxy-9-methyl-2-piperazin-1-yl-thieno[2,3-d:4,5-d′]dipyrimidin-7-yl)-biphenyl-4′-carboxylic acid sodium salt] | 2 to 50 nM |
| CCOc1nc(N2CCNCC2)c2sc3nc(-c4ccc(C)cc4)cc(CC)c3c2n1 [2-Ethoxy-9-ethyl-7-(4-methyl-phenyl)-4-(piperazin-1-yl)-pyrido[3′,2′:4,5]thieno[3,2-d]pyrimidine] | < 2 nM and 2 to 50 nM |
| CCOC(=O)c1ccc(-c2ccc(-c3nc(C)c4c(n3)sc3c(OCC)nc(N5CCNCC5)nc34)cc2)cc1 [4-(4-Ethoxy-9-methyl-2-piperazin-1-yl-thieno[2,3-d:4,5-d′]dipyrimidin-7-yl)-biphenyl-4′-carboxylic acid ethyl ester] | 2 to 50 nM |
| Cc1cc(-c2ccccc2)nc2sc3c(N4CCNCC4)nc(OCC(F)F)nc3c12 [2-(2,2-Difluoro-ethoxy)-9-methyl-7-phenyl-4-(piperazin-1-yl)-pyrido[3′,2′:4,5]thieno[3,2-d]pyrimidine] | 2 to 50 nM |
| CCOc1nc(N2CCNCC2)nc2c1sc1nc(-c3ccc(C)cc3)cc(C)c12 [4-Ethoxy-9-methyl-7-(4-methyl-phenyl)-2-(piperazin-1-yl)-pyrido[3′,2′:4,5]thieno[3,2-d]pyrimidine] | 2 to 50 nM |
| CCCc1nc(N2CCNCC2)c2sc3nc(-c4ccc(OC)c(OC)c4)cc(C)c3c2n1 [7-(3,4-Dimethoxy-phenyl)-9-methyl-4-(piperazin-1-yl)-2-n-propyl-pyrido[3′,2′:4,5]thieno[3,2-d]pyrimidine] | 2 to 50 nM |

Next, values leading:

| IC50 | Structure (SMILES) |
| --- | --- |
| < 2 nM | CCOc1nc(N2CCNCC2)nc2c1sc1nc(-c3ccc(I)cc3)cc(C(F)(F)F)c12 [4-Ethoxy-7-(4-iodo-phenyl)-2-(piperazin-1-yl)-9-trifluoromethyl-pyrido[3′,2′:4,5]thieno[3,2-d]pyrimidine] |
| 2 to 50 nM | CCOc1nc(N2CCNCC2)nc2c1sc1nc(-c3ccc(N)cc3)cc(C(F)(F)F)c12 [7-(4-Amino-phenyl)-4-ethoxy-2-piperazin-1-yl-9-trifluoromethyl-pyrido[3′,2′:4,5]thieno[3,2-d]pyrimidine] |
| 2 to 50 nM | CCOc1nc(N2CCNCC2)nc2c1sc1nc(-c3ccc(F)cc3)cc(C(F)(F)F)c12 [4-Ethoxy-7-(4-fluoro-phenyl)-2-piperazin-1-yl-9-trifluoromethyl-pyrido[3′,2′:4,5]thieno[3,2-d]pyrimidine] |
| < 2 nM | CCOc1nc(N2CCNCC2)nc2c1sc1nc(-c3ccc(C)cc3)cc(C(F)(F)F)c12 [4-Ethoxy-7-(4-methyl-phenyl)-2-(piperazin-1-yl)-9-trifluoromethyl-pyrido[3′,2′:4,5]thieno[3,2-d]pyrimidine] |
| 2 to 50 nM | CCOc1nc(N2CCNCC2)nc2c1sc1nc(-c3ccc(C(F)(F)F)cc3)cc(C)c12 [4-Ethoxy-7-(4-trifluoro-methyl-phenyl)-9-methyl-2-(piperazin-1-yl)-pyrido[3′,2′:4,5]thieno[3,2-d]pyrimidine] |
| < 2 nM | CCOc1nc(N2CCNCC2)nc2c1sc1nc(-c3ccc(OC)cc3)cc(C(F)(F)F)c12 [4-Ethoxy-7-(4-methoxy-phenyl)-2-(piperazin-1-yl)-9-trifluoromethyl-pyrido[3′,2′:4,5]thieno[3,2-d]pyrimidine] |
| < 2 nM | CCOc1nc(N2CCNCC2)nc2c1sc1nc(-c3ccc(-n4cccc4)cc3)cc(C(F)(F)F)c12 [4-Ethoxy-9-trifluoromethyl-2-piperazin-1-yl-7-(4-(1H-pyrrol-1-yl)-phenyl)-pyrido[3′,2′:4,5]thieno[3,2-d]pyrimidine] |
| 2 to 50 nM | CCOc1nc(N2CCNCC2)nc2c1sc1nc(-c3cccc(N)c3)cc(C(F)(F)F)c12 [7-(3-Amino-phenyl)-4-Ethoxy-2-piperazin-1-yl-9-trifluoromethyl-pyrido[3′,2′:4,5]thieno[3,2-d]pyrimidine] |
